Test system: human peripheral blood mononuclear cells (PBMC)
Test: PBMC cytotoxicity assay (CellTiter-Glo)
Type: cell-based
Details: 2 days, pCC50
How it was run: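 Human PBMC (50,000 cells/well) stimulated with IFN-γ 100 ng/ml and LPS 50 ng/ml were exposed to 11-point 3-fold compound dilutions for 2 days at 37 °C, 5% CO2. Viability read by CellTiter-Glo ATP luminescence and normalized to no-cell and stimulated-DMSO controls. XC50 derived by four-parameter fit.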

| SMILES | PBMC TOX PXC50 |
| --- | --- |
| CC(C)CN(c1ccc([C@H](C)CC(=O)O)cc1Nc1nc(C(F)(F)F)ns1)C1CCOCC1 [Example 20, (R)-3-(4-(Isobutyl(tetrahydro-2H-pyran-4-yl)amino)-3-((3-(trifluoromethyl)-1,2,4-thiadiazol-5-yl)amino)phenyl)butanoic Acid] | <5 |
| CC(C)CN(c1ccc([C@H](C)CC(=O)O)cc1Nc1nnc(C2CC2)s1)C1CCOCC1 [Example 23, (R)-3-(3-((5-cyclopropyl-1,3,4-thiadiazol-2-yl)amino)-4-(isobutyl (tetrahydro-2H-pyran-4-yl)amino)phenyl)butanoic Acid] | <5 |
